# Laboratory results as given in patent US20190225650A1, “PEPTIDOMIMETIC MACROCYCLES AND USE THEREOF IN REGULATING HIF1ALPHA” (AILERON THERAPEUTICS, INC., priority 2013, published 2019).
# Bridge positions count the residues as written; N and C are the ends. Square brackets hold non-standard residues; d marks the D form. Peptide text beside a SMILES is read from it. R8 = C=CCCCCCC[C@@](C)(N)C(=O)O; S5 = C=CCCC[C@](C)(N)C(=O)O; Nle = CCCC[C@H](N)C(=O)O
# Experiments:
# HRE-bla ME-180 cells [1] = test: Cell proliferation assay (viability, MTT, 1% FBS); format: cell-based, human
# How it was run: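 Viable cell number was measured with the CellTiter 96 (MTT) kit after compounds were applied for a 16 h normoxic (21% O2) pretreatment, followed by further normoxic or hypoxic (1% O2) culture. Cells: 2×10^4 ME-180 per well, Opti-MEM + 1% FBS, 0.5% DMSO vehicle.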
# HRE-bla ME-180 cells [2] = test: Reporter gene assay (HRE-bla ME-180 HIF reporter, GeneBLAzer); format: cell-based, human; conditions: for EC50: 24 hour normoxia
# How it was run: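 A FRET β-lactamase readout of HIF transcription was used. After compound treatment in 0.3% DMSO/media under normoxic conditions, 20 μl of 6× LiveBLAzer-FRET B/G (CCF4-AM) substrate was added. Plates sat 3 hr at room temperature in the dark and were read at 409 Ex/460Em and 409Ex/530Em on a Synergy 2. Inhibition was compared against DMSO vehicle controls, with chetomin as positive control.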
# [3] = biological target: T1, flag-tagged HIF1α (AA 786-826) / His6-tagged p300 (AA 323-423) complex (Homo sapiens, UniProt Q09472); test: HIF1α p300 displacement assay (TR FRET, +CHAPS); format: binding; conditions: read-out: IC50 (nM) (HIF1α_p300 Displacement + CHAPS)
# T1 construct: His6-tagged p300 (AA 323-423); made in house; host or cells: E. coli (pETDuet vector)
# How it was run: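 In this TR-FRET displacement format, peptides compete HIF1α C-terminal transactivation domain off p300-CH. They were preincubated 1 h at room temperature with 300 nM complex in HEPES pH 7.4/NaCl buffer with 7.5 mM CHAPS and 1 mM DTT. Anti-His-D2 (4 nM) and anti-Flag-K (0.5 μM) followed for 2 h, and a one-site fit of the fluorescence ratio gave IC50.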
Compound,EC50 (HRE-bla ME-180 cells [2]),IC50 [3],Viability 1% FBS AVG (MTT V3-24 hr Normoxia) (μM) (HRE-bla ME-180 cells [1]),18 h Avg % max inhibition at top conc (HIF Rptr-24 hrs normoxia) (μM) (HRE-bla ME-180 cells [2])
CCCC[C@H](NC(=O)[C@H](CCC(=O)O)NC(=O)[C@@H](NC(=O)[C@@H](NC(=O)[C@H](CC(C)C)NC(=O)[C@]1(C)CCCC=CCCC[C@](C)(NC(=O)[C@H](CCC(=O)O)NC(=O)[C@H](CC(=O)O)NC(=O)[C@@H](NC(=O)[C@H](Cc2ccccc2)NC(C)=O)[C@@H](C)CC)C(=O)N[C@@H](C(C)C)C(=O)N[C@@H](CC(C)C)C(=O)N[C@@H](C)C(=O)N1)C(C)C)[C@@H](C)CC)C(=O)N[C@@H](C)C(=O)N[C@@H](CC(C)C)C(N)=O [SP-152] (Ac-FIDE[S5]VLA[S5]LVIE[Nle]AL-NH2; staple 5-9),> 30 µM,400 to 700 nM,++++ (≥30: ++++),+++ (≤25 but <50: +++)
CCCC[C@H](NC(=O)[C@H](CCC(=O)O)NC(=O)[C@@H](NC(=O)[C@@H](NC(=O)[C@H](CC(C)C)NC(=O)[C@]1(C)CCCC=CCCC[C@](C)(NC(=O)[C@H](CCC(=O)O)NC(=O)[C@H](CCCNC(=N)N)NC(=O)[C@@H](NC(=O)[C@H](Cc2ccccc2)NC(C)=O)[C@@H](C)CC)C(=O)N[C@@H](C(C)C)C(=O)N[C@@H](CC(C)C)C(=O)N[C@@H](CCCC)C(=O)N1)C(C)C)[C@@H](C)CC)C(=O)N[C@@H](C)C(=O)N[C@@H](CC(C)C)C(N)=O [SP-155] (Ac-FIRE[S5]VL[Nle][S5]LVIE[Nle]AL-NH2; staple 5-9),> 30 µM,> 700 nM,++++ (≥30: ++++),++ (≤10 but <25: ++)
CCCC[C@H](NC(=O)[C@H](CCC(=O)O)NC(=O)[C@@H](NC(=O)[C@@H](NC(=O)[C@H](CC(C)C)NC(=O)[C@]1(C)CCCC=CCCC[C@](C)(NC(=O)[C@H](CCC(=O)O)NC(=O)[C@H](CC(=O)O)NC(=O)[C@@H](NC(=O)[C@H](Cc2ccccc2)NC(C)=O)[C@@H](C)CC)C(=O)N[C@@H](C)C(=O)N[C@@H](CC(C)C)C(=O)N[C@@H](CCCC)C(=O)N1)C(C)C)[C@@H](C)CC)C(=O)N[C@@H](C)C(=O)N[C@@H](CC(C)C)C(N)=O [SP-138] (Ac-FIDE[S5]AL[Nle][S5]LVIE[Nle]AL-NH2; staple 5-9),> 30 µM,200 to 400 nM,++++ (≥30: ++++),+++ (≤25 but <50: +++)
CCCC[C@H](NC(=O)[C@H](CCC(=O)O)NC(=O)[C@]1(C)CCCC=CCCCCCC[C@@](C)(NC(=O)[C@H](CCC(=O)O)NC(=O)[C@H](C)NC(=O)[C@@H](NC(=O)[C@H](Cc2ccccc2)NC(C)=O)[C@@H](C)CC)C(=O)N[C@@H](C(C)C)C(=O)N[C@@H](CC(C)C)C(=O)N[C@@H](CCCC)C(=O)N[C@@H](CO)C(=O)N[C@@H](CC(C)C)C(=O)N[C@@H](C(C)C)C(=O)N1)C(=O)N[C@@H](C)C(=O)N[C@@H](CC(C)C)C(=O)N[C@@H](CC(=O)O)C(=O)N[C@@H](C)C(=O)N[C@H](C(N)=O)[C@@H](C)CC [SP-192] (Ac-FIAE[R8]VL[Nle]SLV[S5]E[Nle]ALDAI-NH2; staple 5-12),> 30 µM,200 to 400 nM,++++ (≥30: ++++),++ (≤10 but <25: ++)
CCCC[C@H](NC(=O)[C@H](Cc1ccccc1)NC(=O)[C@@H](NC(=O)[C@H](CCC(N)=O)NC(=O)[C@H](CCC(N)=O)NC(=O)[C@H](CC(N)=O)NC(=O)[C@@H](NC(=O)[C@H](Cc1ccccc1)NC(C)=O)[C@@H](C)CC)C(C)C)C(=O)N[C@@]1(C)CCCC=CCCC[C@@](C)(C(=O)N[C@@H](CCCC)C(=O)N[C@@H](C)C(=O)N[C@@H](CC(C)C)C(=O)N[C@@H](CC(C)C)C(N)=O)NC(=O)[C@H]([C@@H](C)CC)NC(=O)[C@H](C(C)C)NC(=O)[C@H](CC(C)C)NC1=O [SP-248] (Ac-FINQQVF[Nle][S5]LVI[S5][Nle]ALL-NH2; staple 9-13),> 30 µM,> 700 nM,++++ (≥30: ++++),+++ (≤25 but <50: +++)
CC[C@H](C)[C@H](NC(=O)[C@H](Cc1ccccc1)NC(C)=O)C(=O)N[C@@H](CC(=O)O)C(=O)N[C@@H](CCC(=O)O)C(=O)N[C@@]1(C)CCCC=CCCC[C@@](C)(C(=O)N[C@@H](CC(C)C)C(=O)N[C@H](C(=O)N[C@H](C(=O)N[C@@H](CCC(=O)O)C(=O)N[C@@H](CCSC)C(=O)N[C@@H](C)C(=O)N[C@@H](CC(C)C)C(N)=O)[C@@H](C)CC)C(C)C)NC(=O)[C@H](CCSC)NC(=O)[C@H](CC(C)C)NC(=O)[C@H](C(C)C)NC1=O [SP-110] (Ac-FIDE[S5]VLM[S5]LVIEMAL-NH2; staple 5-9),> 30 µM,400 to 700 nM,++++ (≥30: ++++),+++ (≤25 but <50: +++)
CC[C@H](C)[C@H](NC(=O)[C@H](Cc1ccccc1)NC(C)=O)C(=O)N[C@@H](CC(=O)O)C(=O)N[C@@H](CCC(=O)O)C(=O)N[C@@]1(C)CCCC=CCCC[C@@](C)(C(=O)N[C@@H](CC(C)C)C(=O)N[C@H](C(=O)N[C@H](C(=O)N[C@@H](CCC(=O)O)C(=O)N[C@@H](CCSC)C(=O)NCC(=O)N[C@@H](CC(C)C)C(=O)N[C@@H](CC(=O)O)C(=O)N[C@@H](CCCNC(=N)N)C(=O)N[C@H](C(=O)N[C@@H](CCCCN)C(=O)N[C@@H](CCC(=O)O)C(=O)N[C@@H](CC(C)C)C(=O)N2CCC[C@H]2C(=O)N[C@@H](CCC(=O)O)C(=O)N[C@@H](CC(C)C)C(=O)N[C@@H](Cc2c[nH]c3ccccc23)C(=O)N[C@@H](CC(C)C)C(N)=O)[C@@H](C)CC)[C@@H](C)CC)C(C)C)NC(=O)[C@H](CCSC)NC(=O)[C@H](CC(C)C)NC(=O)[C@H](C(C)C)NC1=O [SP-104] (Ac-FIDE[S5]VLM[S5]LVIEMGLDRIKELPELWL-NH2; staple 5-9),5 to 15 µM,200 to 400 nM,++++ (≥30: ++++),++++ (≥50: ++++)

# Now from value to compound, other results behind:
EC50 (HRE-bla ME-180 cells [2]),IC50 [3],Compound,Viability 1% FBS AVG (MTT V3-24 hr Normoxia) (μM) (HRE-bla ME-180 cells [1]),18 h Avg % max inhibition at top conc (HIF Rptr-24 hrs normoxia) (μM) (HRE-bla ME-180 cells [2])
> 30 µM,400 to 700 nM,CCCC[C@H](NC(=O)[C@]1(C)CCCC=CCCC[C@](C)(NC(=O)[C@H](CCCC)NC(=O)[C@H](CC(C)C)NC(=O)[C@@H](NC(=O)[C@H](CCC(=O)O)NC(=O)[C@H](CCC(=O)O)NC(=O)[C@H](CC(=O)O)NC(=O)[C@@H](NC(=O)[C@H](CC(N)=O)NC(=O)[C@@H](NC(=O)[C@H](CCC(N)=O)NC(=O)[C@H](CC(=O)O)NC(=O)[C@H](CC(C)C)NC(=O)[C@H](C)NC(=O)[C@H](CCCNC(=N)N)NC(=O)[C@H](CC(C)C)NC(=O)[C@H](CC(C)C)NC(=O)[C@H](CCC(=O)O)NC(=O)[C@H](CCC(=O)O)NC(=O)CNC(=O)[C@H](CCC(N)=O)NC(=O)[C@H](CC(C)C)NC(=O)[C@H](CC(C)C)NC(C)=O)C(C)C)[C@@H](C)CC)C(C)C)C(=O)N[C@@H](CC(C)C)C(=O)N[C@@H](C(C)C)C(=O)N[C@@H]([C@@H](C)CC)C(=O)N1)C(N)=O [SP-335] (Ac-LLQGEELLRALDQVNIDEEVL[Nle][S5]LVI[S5][Nle]-NH2; staple 23-27),++++ (≥30: ++++),+ (<10: +)
≤ 5 µM,> 700 nM,CC[C@H](C)[C@H](NC(=O)[C@H](CCCNC(=N)N)NC(=O)[C@H](CC(N)=O)NC(=O)[C@H](CC(C)C)NC(=O)[C@H](C)NC(=O)[C@H](CCSC)NC(=O)[C@]1(C)CCCC=CCCC[C@](C)(NC(=O)[C@H](CCSC)NC(=O)[C@H](CC(C)C)NC(=O)[C@@H](NC(=O)[C@H](C)NC(=O)[C@H](CCC(N)=O)NC(=O)[C@H](CC(N)=O)NC(=O)[C@@H](NC(=O)[C@H](Cc2ccccc2)NC(C)=O)[C@@H](C)CC)C(C)C)C(=O)N[C@@H](CC(C)C)C(=O)N[C@@H](C(C)C)C(=O)N[C@@H]([C@@H](C)CC)C(=O)N1)C(N)=O [SP-272] (Ac-FINQAVLM[S5]LVI[S5]MALNRI-NH2; staple 9-13),++ (≤5 but <15: ++),++++ (≥50: ++++)
> 30 µM,200 to 400 nM,"CCCC[C@H](NC(=O)[C@]1(C)CCCC=CCCC[C@](C)(NC(=O)[C@H](CCCC)NC(=O)[C@H](CC(C)C)NC(=O)[C@@H](NC(=O)[C@H](CCC(=O)O)NC(=O)[C@H](CCC(=O)O)NC(=O)[C@H](CC(=O)O)NC(=O)[C@@H](NC(=O)[C@H](CC(N)=O)NC(=O)[C@@H](NC(=O)[C@]2(C)CCCC=CCCCCCC[C@@](C)(NC(=O)[C@H](CCC(=O)O)NC(C)=O)C(=O)N[C@@H](CC(C)C)C(=O)N[C@@H](CC(C)C)C(=O)N[C@@H](CCCNC(=N)N)C(=O)N[C@@H](C)C(=O)N[C@@H](CC(C)C)C(=O)N[C@@H](CC(=O)O)C(=O)N2)C(C)C)[C@@H](C)CC)C(C)C)C(=O)N[C@@H](CC(C)C)C(=O)N[C@@H](C(C)C)C(=O)N[C@@H]([C@@H](C)CC)C(=O)N1)C(N)=O [SP-351] (Ac-E[R8]LLRALD[S5]VNIDEEVL[Nle][S5]LVI[S5][Nle]-NH2; staple 2-9, 19-23)",++++ (≥30: ++++),++ (≤10 but <25: ++)
